Source: paper PMC11420244, “Evaluation of the effect of modafinil on the pharmacokinetics of encorafenib and binimetinib in patients with BRAF V600-mutant advanced solid tumors” (Cancer Chemotherapy and Pharmacology, 2024)
Read-outs that look alike come from different tables or passages of the source.

Legend:
[1] = Reported DDI studies of CYP3A substrates with strong, moderate or weak CYP3A inducers; type: in vivo
Source text: Another strategy to predict the effect strong induction may have on encorafenib PK, or the PK of other CYP3A substrates, but with fewer assumptions was proposed in a review by Molenaar-Kuijsten et al.. Based on a review of 12 approved oral anticancer drugs primarily metabolized by CYP3A, if no clinical DDI data were available for moderate inducers, an effect of 50% compared to strong inducers could be assumed. After expanding the dataset of Molenaar-Kuijsten to include 3 additional approved oral anti-cancer drugs (fuzuloparib, pirtobrutinib, and fedratinib) metabolized by CYP3A, we applied this approach in the opposite direction (lack of clinical data for the effect of strong CYP3A4 inducers) given available clinical DDI data generated in this study for encorafenib (Table 3). The median ratio of the decrease for a strong inducer to a moderate inducer was 1.56 and ranged from 1.15 for cobimetinib to 2.43 for palbociclib. […] The upper end of this range is consistent with PBPK simulations conducted prior to the study, indicating encorafenib exposures would decrease by ∼ 58% in combination with rifampin (based on a model with some simplifying assumptions) and would also be consistent with the recommendations based on in vitro data to avoid strong inducers in combination with encorafenib. This approach to managing potential coadminsitration of encorafenib with a strong inducer of CYP3A is the most conservative due to lack of more precise extrapolation methods and clincial data.

[2] = cited from earlier work; for Effect of Strong CYP3A Inducer on AUC (decrease): Rifampin
[3] = PBPK modeling; cited from earlier work
[4] = Phase 1 clinical DDI study: steady-state plasma PK (noncompartmental analysis) with and without modafinil; type: in vivo, Human; details: for MRAUC last (metabolite ratio), Median (range) / MRC max (metabolite ratio), Median (range): metabolite to parent; for AUClast, Median (range) / Cmax, Median (range) / T1/2, Median (range) / Tmax, Median (range): plasma, patients
Protocol: Encorafenib 450 mg QD and binimetinib 45 mg BID were administered starting on Day 1. Patients then received continuous treatment of 400 mg QD modafinil on Day 15 through Day 21. Blood samples for measurement of plasma concentrations of encorafenib (and its metabolite, LHY746) and binimetinib (and its active metabolite, AR00426032), were collected at 0, 1, 2, 3, 4, 6 and 8 h post dose on Day 14 and Day 21.
Human PK plasma samples were analyzed for quantitation of all PK analytes at PPD (Middleton, Wisconsin, US) using validated, sensitive, and specific HPLC/MS/MS methods in compliance with laboratory SOPs.
PK parameters including, but not limited to, Cmax and AUClast were calculated for each participant using noncompartmental analysis (NCA) methods using the WinNonlin software package (Phoenix WinNonlin Professional, version 8.0 Pharsight Corporation, Mountain View, California) for PK analytes including encorafenib and its metabolite LHY746, and binimetinib and its metabolite AR00426032.
All patients who received at least one dose of any study drug were included in the Safety Set population. The Evaluable PK Set included all patients with sufficient concentration data to calculate at least one PK parameter for encorafenib and binimetinib on Days 14 and 21. Patients who discontinued, missed 3 or more consecutive doses of encorafenib prior to completion of the last PK sampling on Day 14, or required a dose reduction of encorafenib prior to completion of the last PK sampling on Day 14 were excluded from the Evaluable PK set. In addition, patients who missed any dose of study drugs on any of the PK days, or who vomited within 4 h after dosing on any of the PK days were excluded from Evaluable PK set.
An analysis of variance (ANOVA) was performed on the natural log (ln)-transformed Cmax and AUClast of encorafenib, LHY746, binimetinib, and AR00426032. The least squares means (LSM) geometric mean ratio (GMR) and associated 90% confidence interval (CI) for each PK parameter were calculated using the exponentiation of the difference between treatment LSM from the analyses on the ln-transformed parameters and expressed as a percentage of Day 21 relative to Day 14.

[5] = cited from earlier work
[6] = Day 14, without modafinil, steady state
[7] = Day 21 (with modafinil) relative to Day 14 (without)
[8] = Day 21, with modafinil 400 mg QD
[9] = Day 21, with modafinil 400 mg QD, steady state

For `Cc1cc(Nc2ncc(Cl)c(Nc3ccccc3S(=O)(=O)C(C)C)n2)c(OC(C)C)cc1C1CCNCC1` [Ceritinib], the “Strong CYP3A Inducer Effect /Moderate CYP3A Inducer Effect” value ([1]; ratio of AUC decreases) is listed as 1.59, the “Effect of Moderate CYP3A Inducer on AUC (decrease)” value ([2]; Efavirenz) is listed as “↓ 43%” and the “Effect of Strong CYP3A Inducer on AUC (decrease)” value [2] is listed as “↓ 68.5%”.

In the case of `O=C(c1cc(Cc2n[nH]c(=O)c3ccccc23)ccc1F)N1CCN(C(=O)C2CC2)CC1` [Olaparib], the “Strong CYP3A Inducer Effect /Moderate CYP3A Inducer Effect” value ([1]; ratio of AUC decreases) is listed as 1.38 and the “Effect of Moderate CYP3A Inducer on AUC (decrease)” value ([2]; Efavirenz) is listed as “↓ 57.3%”.

For `Cc1cnc(Nc2ccc(OCCN3CCCC3)cc2)nc1Nc1cccc(S(=O)(=O)NC(C)(C)C)c1` [Fedratinib], the “Strong CYP3A Inducer Effect /Moderate CYP3A Inducer Effect” value ([1]; ratio of AUC decreases) is listed as 1.72, the “Effect of Moderate CYP3A Inducer on AUC (decrease)” value ([2]; Efavirenz) is listed as “↓ 47%” and the “Effect of Strong CYP3A Inducer on AUC (decrease)” value [2] is listed as “↓ 81%”.

For `O=C(c1cc(Cc2n[nH]c(=O)c3ccccc23)ccc1F)N1CCn2nc(C(F)(F)F)nc2C1` [Fuzuloparib], the “Strong CYP3A Inducer Effect /Moderate CYP3A Inducer Effect” value ([1]; ratio of AUC decreases) is listed as 1.45, the “Effect of Moderate CYP3A Inducer on AUC (decrease)” value ([2]; Efavirenz) is listed as “↓ 22%” and the “Effect of Strong CYP3A Inducer on AUC (decrease)” value [2] is listed as “↓ 32%”.

In the case of `COc1ccc(F)cc1C(=O)NCc1ccc(-c2nn([C@@H](C)C(F)(F)F)c(N)c2C(N)=O)cc1` [Pirtobrutinib], the “Strong CYP3A Inducer Effect /Moderate CYP3A Inducer Effect” value ([1]; ratio of AUC decreases) is listed as 1.45, the “Effect of Moderate CYP3A Inducer on AUC (decrease)” value ([2]; Efavirenz) is listed as “↓ 49%” and the “Effect of Strong CYP3A Inducer on AUC (decrease)” value [2] is listed as “↓ 71%”.

For `O=C(c1ccc(F)c(F)c1Nc1ccc(I)cc1F)N1CC(O)([C@@H]2CCCCN2)C1` [Cobimetinib], the “Strong CYP3A Inducer Effect /Moderate CYP3A Inducer Effect” value ([1]; ratio of AUC decreases) is listed as 1.15, the “Predicted reduction in AUC with moderate CYP3A inducer” value [3] is listed as 72% and the “Predicted reduction in AUC with strong CYP3A inducer” value [3] is listed as 83%. For the same compound, the “Effect of Moderate CYP3A Inducer on AUC (decrease)” value ([2]; Efavirenz) was “↓ 72%”, the “Effect of Strong CYP3A Inducer on AUC (decrease)” value [2] was “↓ 83%” and the “Reduction in exposure in combination with weak CYP3A inducer vemurafenib” value ([2]; in vivo) was 13%.

For `O=C(NOCCO)c1cc2[nH]cnc2c(F)c1Nc1ccc(Br)cc1F` [AR00426032], the “MRAUC last (metabolite ratio), Median (range)” value ([4]; Day 14, without modafinil) was 0.0482 (0.0182–0.138), the “MRC max (metabolite ratio), Median (range)” value ([4]; Day 14, without modafinil) was 0.0367 (0.0165–0.0926) and the “AUClast, Median (range)” value [4, 6] was 127 (36.1–226) ng*hr/mL. The “Cmax, Median (range)” value [4, 6] was 27.5 (8.23–53.4) ng/mL, the “T1/2, Median (range)” value [4, 6] was 5.44 (2.57–8.86) hr and the “Tmax, Median (range)” value [4, 6] was 2.00 (0.88-3.00) hr. For the same compound, the “AUClast GMR (geometric mean ratio)” value [4, 7] was 0.977, the “Cmax GMR (geometric mean ratio)” value [4, 7] was 0.954 and the “MRAUClast GMR” value [4, 7] was 1.02. The “MRCmax GMR” value [4, 7] was 0.950, the “MRAUC last (metabolite ratio), Median (range)” value [4, 8] was 0.0440 (0.0275–0.123) and the “MRC max (metabolite ratio), Median (range)” value [4, 8] was 0.0335 (0.0192–0.0850). The “AUClast, Median (range)” value [4, 9] was 111 (70.9–197) ng*hr/mL, the “Cmax, Median (range)” value [4, 9] was 23.8 (13.7–40.0) ng/mL and the “T1/2, Median (range)” value [4, 9] was 5.75 (2.88–18.1) hr. The “Tmax, Median (range)” value [4, 9] was 2.00 (0.95–2.23) hr and the “Time at which mean plasma concentrations typically reach peak levels, postdose” value ([4]; Days 14 and 21, steady state) was 2 h.

In the case of `NC(=O)C[S+]([O-])C(c1ccccc1)c1ccccc1` (stereo not shown) [modafinil], the “Patients with headache (only observed AE above this frequency)” value [5] is listed as over 15%.

For `Cc1c(C(=O)Nc2ccc(N3C[C@@H](C)O[C@@H](C)C3)nc2)cccc1-c1ccc(OC(F)(F)F)cc1` [Sonidegib], the “Strong CYP3A Inducer Effect /Moderate CYP3A Inducer Effect” value ([1]; ratio of AUC decreases) is given as 1.56, the “Effect of Moderate CYP3A Inducer on AUC (decrease)” value ([2]; Efavirenz) is given as “↓ 49%” and the “Effect of Strong CYP3A Inducer on AUC (decrease)” value [2] is given as “↓ 76.6%”.

In the case of `C=CC(=O)Nc1cc(Nc2nccc(-c3cn(C)c4ccccc34)n2)c(OC)cc1N(C)CCN(C)C` [Osimertinib], the “Strong CYP3A Inducer Effect /Moderate CYP3A Inducer Effect” value ([1]; human, in vivo) is listed as 1.87, the “Effect of Moderate CYP3A Inducer on AUC (decrease)” value ([2]; Efavirenz) is listed as “↓ 42%” and the “Effect of Strong CYP3A Inducer on AUC (decrease)” value [2] is listed as “↓ 78.5%”. For the same compound, the “Effect of Strong CYP3A Inducer on AUC (decrease)” value ([2]; listed as osimertinib) was 87%.

In the case of `O=C1Nc2ccc(Cl)cc2[C@@](C#CC2CC2)(C(F)(F)F)O1` [efavirenz], the “Patients with neuropsychiatric effects” value [5] is listed as “up to 70%”.

In the case of `Cc1nnc2n1-c1ccc(Cl)cc1C(c1ccccc1Cl)=NC2` [triazolam], the “Decrease on mean AUCinf with modafinil” value ([2]; modafinil 200 mg for 7 days followed by 400 mg for 21 days) is listed as 59%.

For `CC(=O)c1c(C)c2cnc(Nc3ccc(N4CCNCC4)cn3)nc2n(C2CCCC2)c1=O` [Palbociclib], the “Strong CYP3A Inducer Effect /Moderate CYP3A Inducer Effect” value ([1]; ratio of AUC decreases) is given as 2.43, the “Effect of Moderate CYP3A Inducer on AUC (decrease)” value ([2]; Efavirenz) is given as 38% and the “Effect of Moderate CYP3A Inducer on AUC (decrease)” value ([2]; Modafinil) is given as 32%. The “Effect of Strong CYP3A Inducer on AUC (decrease)” value [2] was “↓ 85.2%” and the “Effect of Moderate CYP3A Inducer on AUC (decrease), mean” value ([2]; mean of modafinil and efavirenz) was “↓ 35% (mean)”.
